Patent US20130225669A1 (priority 2012, published 2013)

System: Bacillus atrophaeus spores
Assay: Qualitative antibacterial effects on spore strips in Releasat medium
Format: cell-based
Settings: one week treatment
Experimental: The antibacterial effects of genipin solutions on Bacillus atrophaeus spores was assessed. Using aseptic technique, B. atrophaeus mini spore strips (N=4 per group) with 1.2×10^6 spores per strip (North American Science Associates, Inc., Northwood, Ohio, USA) were either untreated, or treated with either 1 mL PBS, 0.625% genipin in PBS (1.4×10^13 genipin molecules per spore), 90% ethanol, 10% genipin in 90% ethanol (2.2×10^14 genipin molecules per spore), or 10% formalin for one week. Ten percent genipin was used in 90% ethanol for direct comparison to 10% formalin. Solutions were passed through a 0.2 μm Whatman filter (Fisher Scientific, Pittsburgh, Pa., USA) prior to being used to remove extraneous bacteria.
After treating the spore strips for one week they were transferred to Releasat® rapid-readout color changing vials (SGM Biotech, Bozeman, Mont., USA). Releasat® vials have specially formulated soybean-casein digest medium and a pH indicator designed to change color from orange to yellow in the presence of B. atrophaeus growth within 72 hours or remain orange if the spore strips are sterile. The spore strips treated with 10% genipin in 90% ethanol were removed from their respective medium vials and washed in 10 mL of sterile 90% ethanol for 15 minutes after it was noticed that within 90 minutes of placement into the Releasat® medium that the color changed from orange to brown (genipin-induced color change). These spore strips were placed in new Releasat® vials after washing. Spores were incubated at 37° C. and vials were checked after 24, 48, and 72 hours for color change and assessments of turbidity.

| SMILES | color of Releasat medium (orange sterile, yellow growth) (10% formalin, read after 72 hours) | turbidity of medium (0.625% genipin in PBS) | color of Releasat medium (orange sterile, yellow growth) (0.625% genipin in PBS, within 24 hours) | turbidity of medium (10% genipin in 90% ethanol) | color of Releasat medium (orange sterile, yellow growth) (10% genipin in 90% ethanol, within 24 hours) |
| --- | --- | --- | --- | --- | --- |
| C=O [formalin, reference compound] | remained orange | – | – | – | – |
| COC(=O)C1=CO[C@@H](O)C2C(CO)=CC[C@H]12 (stereo in doubt) [genipin, methyl (1R,2R,6S)-2-hydroxy-9-(hydroxymethyl)-3-oxabicyclo [4.3.0]nona-4,8-diene-5-carboxylate] | – | less turbid than the PBS and untreated control at all time points | changed to yellow | less turbid than the 90% ethanol and untreated control after 24 and 48 hours only | changed to yellow |
